Data reported in the supplement of paper PMC12317010.
Where a name gives a salt, the structure may show the parent alone.

Assay: collision cross section in nitrogen (drift tube, single-field); higher = larger gas-phase ion size
[1] = ion type: [M+Na], ion source: ESI, ion mode: Positive
[2] = ion type: [M-H], ion source: ESI, ion mode: Negative
[3] = ion type: [M+H], ion source: ESI, ion mode: Positive
[4] = ion type: [M+H], ion source: APCI, ion mode: Positive
[5] = ion type: [M+], ion source: APCI, ion mode: Positive
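Further: chemical standards at 10 µM analysed by drift tube IMS-QTOF MS in about 3.95 torr nitrogen, mean of duplicate injections differing ≤1%, mass error below 10 ppm.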

SMILES | collision cross section in nitrogen [1] [Å²] | collision cross section in nitrogen [2] [Å²] | collision cross section in nitrogen [3] [Å²] | collision cross section in nitrogen [4] [Å²] | other results
Oc1ccc(C2(c3ccc(O)c(C4CCCCC4)c3)CCCCC2)cc1C1CCCCC1 [1,1-Bis(3-cyclohexyl-4-hydroxyphenyl)cyclohexane] | 218.4 | 217.2 |  |  | 
CC(O)CNCC(C)O (configuration not stated) [Diisopropanolamine] |  |  | 128.2 |  | 
On1nnc2ccccc21 [1-Hydroxybenzotriazole] |  | 122.6 | 125.9 | 124.9 | 
O=C(Nc1ccc2c(O)c(N=Nc3ccc(N=Nc4ccc(S(=O)(=O)O)cc4)cc3)c(S(=O)(=O)O)cc2c1)c1ccccc1 [C.I. Direct Red 81 disodium salt] |  | 283.1 | 276.7 |  | 
Cc1ncc(CO)c(CO)c1O [Pyridoxine] |  | 133.2 | 134.6 | 133.7 | 
CCC(C)OC(=O)N1CCCCC1CCO (configuration not stated) [Icaridin] | 166.5 |  |  |  | 
O=C(NCNC(=O)NC1C(=O)NC(=O)N1CO)NC1C(=O)NC(=O)N1CO (configuration not stated) [Imidazolidinyl urea] | 183.4 |  |  |  | 
O=C(NC(=O)c1c(F)cccc1F)Nc1cc(Cl)c(OC(F)(F)C(F)C(F)(F)F)cc1Cl (configuration not stated) [Lufenuron] |  | 205.4 |  |  | 
CC1=C(CC(=O)O)c2cc(F)ccc2/C1=C\c1ccc(S(C)=O)cc1 (configuration not stated) [Sulindac] |  |  | 196.2 |  | 
CC(C)c1ccc(O)cc1 [4-Isopropylphenol] |  | 134.1 |  |  | 
CCOC(=O)CCN(SN(C)C(=O)Oc1cccc2c1OC(C)(C)C2)C(C)C [Benfuracarb] | 201.5 |  | 197.3 | 197.3 | 
C[C@H]1C(=O)O[C@@H]2CCN3CC=C(COC(=O)[C@](C)(O)[C@]1(C)O)[C@H]23 [Monocrotaline] | 178.6 |  | 175.3 | 175.4 | 
C=CC(=O)OCCOCCOCC [2-(2-Ethoxyethoxy)ethyl acrylate] | 142.6 |  |  |  | 
CC1(C)O[C@@H]2C[C@H]3[C@@H]4C[C@H](F)C5=CC(=O)CC[C@]5(C)[C@H]4[C@@H](O)C[C@]3(C)[C@]2(C(=O)CO)O1 [Flurandrenolide] |  | 201.8 | 186.9 |  | 
Cc1ccc2ncccc2c1 [6-Methylquinoline] |  |  | 125.8 | 125.7 | collision cross section in nitrogen [5]: 124.3 Å²
Cn1c(=O)c2[nH]cnc2n(C)c1=O [Theophylline] | 146.7 |  | 137.3 | 136.3 | 
CN(C1CCCCC1)S(=O)(=O)c1ccccc1N [2-Amino-N-cyclohexyl-N-methylbenzenesulfonamide] | 173.9 |  |  |  | 
CC(C)CCCCCCCCCCCCCCC(=O)O [Isooctadecanoic acid] |  | 177.8 |  |  | 
NC(=O)N1c2ccccc2C=Cc2ccccc21 [Carbamazepine] | 161.1 |  | 150.1 | 150.5 | 
CCCCCCCCCCCCCC(=O)O [Tetradecanoic acid] |  | 161.8 |  |  | 

SMILES | collision cross section in nitrogen [1] [Å²] | collision cross section in nitrogen [2] [Å²] | collision cross section in nitrogen [3] [Å²] | collision cross section in nitrogen [4] [Å²] | other results
C#C[C@]1(O)CC[C@H]2[C@@H]3CCc4cc(O)ccc4[C@H]3CC[C@@]21C [17alpha-Ethinylestradiol] |  | 182.3 |  |  | 
CCN(CCN)c1cccc(C)c1 [N-Ethyl-N-(3-methylphenyl)ethane-1,2-diamine] |  |  | 140.5 | 139.5 | 
CN(C)C(=O)NC1(c2ccccc2)CCN(CCC[C@]2(c3ccc(Cl)c(Cl)c3)CCCN(C(=O)c3ccccc3)C2)CC1 | 256.5 | 246.6 | 252.5 | 252.9 | 
CCOc1nc(F)cc2nc(S(=O)(=O)Nc3c(Cl)cccc3C(=O)OC)nn12 [Cloransulam-methyl] | 192 | 190.2 | 190.7 | 191 | 
c1ccc2sc(SN(C3CCCCC3)C3CCCCC3)nc2c1 [N,N-Dicyclohexyl-2-benzothiazolesulfenamide] | 193.7 |  | 185.8 | 186.2 | 
COCC(C)OCC(C)OCC(C)O (configuration not stated) [Tripropylene glycol monomethyl ether] | 148.8 |  |  |  | 
Clc1ccc(-c2nc3sccn3c2/C=N/OCc2ccc(Cl)c(Cl)c2)cc1 [CITCO] |  | 199 | 200.2 | 200.6 | 
Clc1ccc2c(c1)C(N1CCNCC1)=Nc1ccccc1O2 [Amoxapine] |  |  | 172.6 | 172.4 | 
Cc1ccc(S(=O)(=O)O)cc1 [4-Methylbenzenesulfonic acid hydrate] |  | 134.4 |  |  | 
Nc1ccc(C(=O)OCCCOC(=O)c2ccc(N)cc2)cc1 [1,3-Propanediyl bis(p-aminobenzoate)] | 188.2 | 166.6 |  |  | 
CC(C)c1cccc(C(C)C)c1NC(=O)NS(=O)(=O)c1cc(C(C)(C)O)co1 | 207.5 | 199.5 |  |  | 
O=C(O)COc1ccc(Cl)cc1 [4-Chlorophenoxyacetic acid] |  | 140.9 |  |  | 
CCCCC(CC)COP(=O)(Oc1ccccc1)Oc1ccccc1 (configuration not stated) [2-Ethylhexyl diphenyl phosphate] | 200.9 |  |  |  | 
CC(=O)Nc1ccc(O)cc1 [Acetaminophen] |  | 132.5 |  |  | 
CC(C)(c1ccccc1)c1ccc(O)cc1 [4-Cumylphenol] |  | 157.8 |  |  | 
CCC(=NOC/C=C/Cl)C1=C(O)CC(C2CCOCC2)CC1=O (configuration not stated) [Tepraloxydim] | 191.1 | 181.1 | 185.8 |  | 
NCCNCCNCCNCCN [Tetraethylenepentamine] | 148.5 |  |  |  | 
c1ccc2c(c1)sc1ccccc12 [Dibenzothiophene] |  |  |  |  | collision cross section in nitrogen [5]: 130.2 Å²
CC1(C)CC(N)CC(C)(C)N1 [2,2,6,6-Tetramethylpiperidin-4-amine] |  |  | 135.1 | 133.5 | 
CC(O)CN(CCCN(C)C)CCCN(C)C (configuration not stated) [1-{Bis[3-(dimethylamino)propyl]amino}propan-2-ol] | 158.4 |  | 158.1 | 157.5 | 

SMILES | collision cross section in nitrogen [1] [Å²] | collision cross section in nitrogen [2] [Å²] | collision cross section in nitrogen [3] [Å²] | collision cross section in nitrogen [4] [Å²] | other results
Cc1ccnc2ccccc12 [Lepidine] |  |  | 125.4 | 126.3 | collision cross section in nitrogen [5]: 125.4 Å²
CCCCCCCCCCCC[N+](C)(C)CCCCCCCCCCCC [Didodecyldimethylammonium bromide] |  |  |  |  | collision cross section in nitrogen (ion source: ESI, ion mode: Positive, ion type: [M]+ (permanent cation)): 225.6 Å²
CN(C)C(=O)Nc1cccc(OC(=O)NC(C)(C)C)c1 | 175 |  |  |  | 
Nc1ccc(-c2ccc(N)c(Cl)c2)cc1Cl [3,3'-Dichlorobenzidine dihydrochloride] |  |  | 167.6 |  | collision cross section in nitrogen [5]: 153.3 Å²
CCCCCCC(C)OC(=O)COc1nc(F)c(Cl)c(N)c1Cl (configuration not stated) [Fluroxypyr-meptyl] | 194.3 | 176.2 |  |  | 
CCOC(=O)[C@H](C)Oc1ccc(Oc2nc3ccc(Cl)cc3o2)cc1 [Fenoxaprop-(2S)-ethyl] | 189 |  | 189.8 |  | 
C#CCOS(=O)OC1CCCCC1Oc1ccc(C(C)(C)C)cc1 (configuration not stated) [Propargite] | 186.9 |  |  |  | 
CCN(CC)c1ccc2c(c1)Oc1cc(N(CC)CC)ccc1C21OC(=O)c2ccccc21 [C.I. Solvent Red 49] | 230.2 |  | 218.5 | 217.9 | 
CCOP(=O)(O)OCC [Diethyl hydrogen phosphate] |  | 129.2 |  |  | 
CCc1ccc(O)c(C(C)(C)C)c1 [2-tert-Butyl-4-ethylphenol] |  | 144.6 |  |  | 
Oc1c(Cl)cc(Cl)cc1Sc1cc(Cl)cc(Cl)c1O [Bithionol] |  | 168.8 | 154.7 |  | 
Cc1cc(OC(=O)N(C)C)nn1C(=O)N(C)C [Dimetilan] | 157.9 |  | 153.1 | 152.5 | 
CCCC[P+](CCCC)(CCCC)CCCC [Tetrabutylphosphonium chloride] |  |  |  |  | collision cross section in nitrogen (ion source: APCI, ion mode: Positive, ion type: [M]+ (permanent cation)): 172.4 Å²
CCc1c(C(=O)NN2CCCCC2)nn(-c2ccc(Cl)cc2Cl)c1-c1ccc(Br)cc1 [Surinabant] | 232.1 | 226.6 | 224.1 | 224.8 | 
Oc1c(Cl)ccc(Cl)c1Cl [2,3,6-Trichlorophenol] |  | 128.9 |  |  | 
c1cnc2c(n1)CCCC2 [5,6,7,8-Tetrahydroquinoxaline] |  |  |  | 126.6 | 
CC(C)(C)c1cc(CCC(=O)NN)cc(C(C)(C)C)c1O [3-[3,5-DI(tert-butyl)-4-hydroxyphenyl]propanohydrazide] | 179.3 | 174.5 |  |  | 
OC[C@@H](O)[C@H](O)[C@@H](O)[C@@H](O)CO [L-Glucitol] | 142.9 | 132.8 |  |  | 
CCc1c(C)cc(N)c(CC)c1N [Diethylmethylbenzenediamine] | 145.3 |  | 141.3 | 140.6 | 
